One data set deals with TNF-α. Briefly: Multiplex (MSD V-PLEX) cytokine release, InflammaSkin: TNF-α. It counts as cell-based, human. The protocol: A total of 16 biopsies of 15 mm diameter were produced from a single donor. Two NativeSkin® models with 12/15 mm silicon rings were produced from the biopsies according to standard procedures in place, and cultured under cell culture conditions (37° C., 5% CO2, max. humidity) for 7 days with 2 mL of standard NativeSkin® medium renewed every day. Fourteen PSO-InflammaSkin® models with 12/15 mm silicon rings were produced by inducing in situ activation and Th17/Th1 polarization of skin resident T cells with a proprietary cocktail, and cultured under cell culture conditions (37° C., 5% CO2, max. humidity) for 7 days with 2 mL of PSO-InflammaSkin® culture medium renewed every day.
From Day 1 to Day 6, models were systemically treated with 1 μM Otezla or Short Chain Fatty Acids (SCFAs), or topically treated with positive control 0.05% Betamethasone
In these experiments, the SCFAs administered were 45 μg/mL of Ca-propionate and 1 mM mixture of salts (Ca-butyrate and Mg-butyrate).
At Day 7, supernatants were collected and stored at −80° C. and skin models of all conditions were carefully unmolded. Skin biopsies were re-punched to eliminate the area under the silicon ring, fixed in 10% buffered formalin and processed for paraffin wax embedding.
Human pro-inflammatory cytokines released in the supernatant were quantified using the V-PLEX Human IL-17A Kit (MesoScale Discovery, reference: K151RFD-1) and V-PLEX Human TNFα Kit (MesoScale Discovery, reference: K151QWD-1). Values are expressed in pg/mL. For each condition, single values, mean and SEM were plotted using GraphPad Prism. Statistical analysis was performed using a One Way ANOVA test.
PSO-InflammaSkin® models were cultured and treated as described in Example 1. In these experiments, the SCFAs administered were 45 μg/mL of Ca-propionate and 1 mM mixture of salts (Ca-butyrate and Mg-butyrate).
Human pro-inflammatory cytokines released in the supernatant were quantified using the V-PLEX Human IL-17A Kit (MesoScale Discovery, reference: K151RFD-1) and V-PLEX Human custom Pro-inflammatory. Plate 1 comprised Proinflammatory Panel 1 (human) kit reference K15049 (panel IFN-γ and TNF-α). Plate 2 comprised TH17 Panel 1 (human) kit reference K15049 (panel IL-17A Gen B, IL-21, IL-22, IL-23, IL-27, IL-31, MIP-3α).
(§1) Samples were diluted four times for plate 2 and two times for plate 1. Samples and standards were assessed in duplicate. Plates were read on MesoScale Discovery Quickpleax SQ 120 plate reader and values expressed in pg/mL.
A statistical analysis was performed. Each condition was compared to the untreated InflammaSkin® condition. First, the distribution's normality of the two compared group was assessed. […] If the two distributions were normal, the homogeneity of variances was assessed using a Fisher test on the variances. […]

The next data set has as its system IL-31. Briefly: Multiplex (MSD V-PLEX) cytokine release, InflammaSkin: IL-31. It counts as cell-based, human. Conditions: Example 2; Day 7 supernatant; 1 μM Otezla or SCFA systemic; vs untreated InflammaSkin. The protocol:
A total of 16 biopsies of 15 mm diameter were produced from a single donor. Two NativeSkin® models with 12/15 mm silicon rings were produced from the biopsies according to standard procedures in place, and cultured under cell culture conditions (37° C., 5% CO2, max. humidity) for 7 days with 2 mL of standard NativeSkin® medium renewed every day. Fourteen PSO-InflammaSkin® models with 12/15 mm silicon rings were produced by inducing in situ activation and Th17/Th1 polarization of skin resident T cells with a proprietary cocktail, and cultured under cell culture conditions (37° C., 5% CO2, max. humidity) for 7 days with 2 mL of PSO-InflammaSkin® culture medium renewed every day. […]
Human pro-inflammatory cytokines released in the supernatant were quantified using the V-PLEX Human IL-17A Kit (MesoScale Discovery, reference: K151RFD-1) and V-PLEX Human custom Pro-inflammatory. […]
as §1
A statistical analysis was performed. […] First, the distribution's normality of the two compared group was assessed. […] If the two distributions were normal, the homogeneity of variances was assessed using a Fisher test on the variances. […]

Data set [1] concerns imiquimod (IMQ)-induced psoriasis model mice. In words: Disease severity score, imiquimod (IMQ)-induced psoriasis model in mice. Particulars: for disease severity score (psoriasis severity score): Example 12. Type of data set: in vivo, mouse. The protocol:
Topical application of IMQ, a TLR7/8 ligand and potent immune activator induced and exacerbated psoriasis in mice. The mouse IMQ-induced psoriasis (IMQ Ps) model was initiated by a repeated topical application of Aldara© cream (containing 5% IMQ) over 6 consecutive days. Female Balb/c mice (9 weeks of age at reception, ordered with 20 g, Charles River, Sulzfeld, Germany; n=10 mice/group, exception healthy controls n=4) received daily a topical application of 62.5 mg of commercially available IMQ cream (5% Aldara©) on the beforehand (day −1) shaved (~2 cm×3 cm), depilated (Pilka© cream) back skin, and 7 mg on the outer right ear skin for 6 consecutive days, translating in a daily dose of approximately 3.5 mg IMQ. Healthy control mice were included in the study and were treated with vehicle cream (Vaseline; Bombastus-Werke AG) only instead of IMQ. Additionally, an IMQ disease control group was also included.
Before starting treatment on the day of disease induction (day 0), mice were randomized based on body weight to the respective group. To evaluate the anti-inflammatory efficacy of the two test compounds in mouse IMQ psoriasis, mice were treated twice daily ([…] in sterile water; m/m/v) or with fixed dose of SCFA (in ddH2O) starting on day 0.
Disease Severity Score was evaluated on a daily base starting with the induction of psoriasis by IMQ application (day 0) until the end (day 6) of the study. The psoriasis severity on the back skin of the mice was evaluated by using a modified scoring system developed by van der Fits et al., based on the clinical PASI (psoriasis area and severity index) and takes skin erythema, scaling and skin thickening into account. Scoring was performed by the same lab technician throughout the experiment. Each parameter was scored independently on a scale from 0 to 3.
The added-up score (erythema plus scaling plus thickening), named disease severity score (scale 0-9), served then as marker for the severity of back skin inflammation. In addition, ear thickness of the right ear was determined daily by using an automatized caliper (Bayer AG, Germany).
The statistical analysis of the data was conducted by using the GraphPad PRISM software. Here, a one-way analysis of variance (ANOVA) and a pair-wise comparison to the IMQ disease control group (using the Dunnett's test) as a multiple comparison procedure was performed. Statistical significance was delineated by p value (*, p<0.05; **, p<0.01; ***, p<0.005; **** p<0.001).

A short description of data set [2]: Body weight in IMQ-induced psoriasis model mice. Type of data set: in vivo, mouse. The protocol: Body weight was determined daily in all mice over the whole period of each study. Oral treatment with either Apremilast (25 mg/kg BID) or SFA002 (fixed dose BID) started with the disease induction on day 0. Etanercept (10 mg/kg Q3D s.c.) served as a technical control. Healthy control and IMQ control group received no placebo treatment.

Consider `CCOc1cc([C@@H](CS(C)(=O)=O)N2C(=O)c3cccc(NC(C)=O)c3C2=O)ccc1OC` [Otezla, Apremilast], for which the “increase of the release of TNF-α” value in the data set on TNF-α (Example 1, Day 7 supernatant, 1 μM Otezla systemic, vs untreated InflammaSkin) is reported as roughly 2 fold. The TNFα secretion result with TNF-α (Example 2, Day 7 supernatant, 1 μM Otezla or SCFA systemic, 0.05% Betamethasone topical, vs untreated InflammaSkin) was “significantly increased”. In addition, the “TNFα level (by MSD)” value in the data set with TNF-α (Example 2, Otezla-treated InflammaSkin (untreated about 1 μg/mL)) is given as “about 2 μg/mL”. Also, in the data set on IL-31, the IL-31 secretion entry is “reduced IL-31 (FIG. 10 and FIG. 17), but it was not significantly different from untreated InflammaSkin® models”. Also, the “disease severity score (psoriasis severity), back skin” value in data set [1] (Example 4, oral gavage BID from day 0 to day 6, Apremilast 25 mg/kg BID (50 mg/kg/day), SCFA fixed dose (120 mg/kg/day Ca-propionate + 2,146 mg/kg/day Ca-/Mg-butyrate), vs IMQ control) was “significantly inhibited the psoriasis severity in IMQ-treated mice throughout the duration of the experiment”. In data set [1] (Example 5, Apremilast 10 mg/kg/day and 14 mg/kg/day (5 and 7 mg/kg BID), oral), the “disease severity score (psoriasis severity)” value was “inhibited the psoriasis severity in IMQ-treated mice within the first four days of the study, but anti-inflammatory effects were not maintained until the end of the study at day 6”. Also, the “disease severity score (psoriasis severity score)” value is “did not reach significance at day 4 and day 5” in data set [1] (Apremilast 12 mg/kg BID oral, monotherapy); “reduced the psoriasis severity score in IMQ-treated mice at day 4 of the study (p<0.05), and these effects were maintained at the end of the study at day 6” in data set [1] (Apremilast 25 mg/kg BID oral alone, or combined with fixed dose SCFA (60 mg/kg/day Ca-propionate + 1,100 mg/kg/day Ca-/Mg-butyrate)). The body weight loss result was “no effect on body weight loss” in data set [2] (Example 4, Apremilast 25 mg/kg BID, SCFA fixed dose BID (120 + 2,146 mg/kg/day), oral); “no positive influence on body weight loss” in data set [2] (Example 7, Apremilast 2.5, 5, 7 mg/kg BID, SCFA (120 + 1,100 mg/kg/day), alone or in combination, vs vehicle-treated IMQ disease controls); “no positive influence on body weight loss” in data set [2] (Example 9, Apremilast 25 mg/kg BID, SCFA fixed dose, alone or in combination, vs vehicle-treated IMQ disease controls); “no positive influence on body weight loss” in data set [2] (Example 12, Apremilast 12 or 25 mg/kg BID, fixed dose SCFA, alone or in combination, vs vehicle-treated IMQ disease controls).

Values taken from patent US20260216109A1, “TREATMENT OF SKIN DISORDERS WITH SHORT CHAIN FATTY ACIDS” (Temple University-Of The Commonwealth System of Higher …, priority 2023, published 2026).
